From patent publication EP4467535A1, “LACTAM PESTICIDAL COMPOUNDS” (priority 2023, dated 2024)

How the values were obtained:
Type in all cases: in vivo
[1] = system: Orchid thrips (Dichromothrips corbetti); assay: Action on Orchid thrips (Dichromothrips corbetti), floral-immersion technique; conditions: adult thrips on dipped orchid petals, 72 hours after treatment, read-out: mortality in comparison with untreated controls
Procedure: Example B2: Action on Orchid thrips (Dichromothrips corbetti)
Dichromothrips corbetti adults used for bioassay were obtained from a colony maintained continuously under laboratory conditions. For testing purposes, the test compound is diluted in a 1:1 mixture of acetone:water (vol:vol), plus Kinetic® HV at a rate of 0.01% v/v.
Thrips potency of each compound was evaluated by using a floral-immersion technique. All petals of individual, intact orchid flowers were dipped into treatment solution and allowed to dryin Petri dishes. Treated petals were placed into individual re-sealable plastic along with about 20 adult thrips. All test arenas were held under continuous light and a temperature of about 28°C for duration of the assay. After 3 days, the numbers of live thrips were counted on each petal. The percent mortality was recorded 72 hours after treatment.

[2] = system: Tobacco budworm (Heliothis virescens); assay: Action on Tobacco budworm (Heliothis virescens), 96-well microtiter plate insect diet test; conditions: 120 h, egg and larval mortality visually assessed after 5 days, read-out: mortality in comparison with untreated controls
Procedure: Example B5: Action on Tobacco budworm (Heliothis virescens)
For evaluating control of tobacco budworm (Heliothis virescens) the test unit consisted of 96-well-microtiter plates containing an insect diet and 15-25 H. virescens eggs.
The compounds were formulated using a solution containing 75% v/v water and 25% v/v DMSO. Different concentrations of formulated compounds were sprayed onto the insect diet at 10 µl, using a custom-built micro atomizer, at two replications.
After application, microtiter plates were incubated at about 28 + 1°C and about 80 + 5 % relative humidity for 5 days. Egg and larval mortality were then visually assessed.

[3] = system: Diamond back moth (Plutella xylostella); assay: Action on Diamond back moth (Plutella xylostella), 96-well microtiter plate insect diet test; conditions: 120 h, read-out: mortality in comparison with untreated controls
Procedure: Example B8: Action on Diamond back moth (Plutella xylostella)
For evaluating control of diamond back moth (Plutella xylostella) the test unit consisted of 96-well-microtiter plates containing an insect diet and 15-25 P. xylostella eggs. The compounds or mixtures were formulated using a solution containing 75% water and 25% DMSO. Different concentrations of formulated compounds or mixtures were sprayed onto the insect diet at 5µl, using a custom-built micro atomizer, at two replications. For experimental mixtures in these tests identical volumes of both mixing partners at the desired concentrations respectively, were mixed together. After application, microtiter plates were incubated at 28 ± 1°C, 80 ± 5 % relative humidity for 5 days. Egg and larval mortality was then visually assessed.

[4] = system: Yellow fever mosquito (Aedes aegypti); assay: whole plant or invertebrate; conditions: 48 h, larval mortality visually assessed after 2 days at 28 ± 1°C, read-out: mortality in comparison with untreated controls
Procedure: Example B1: Action on Yellow fever mosquito (Aedes aegypti)
For evaluating control of yellow fever mosquito (Aedes aegypti) the test unit consisted of 96-well-microtiter plates containing 200µL of tap water per well and 5-15 freshly hatched A. aegypti larvae.
The active compounds or mixtures were formulated using a solution containing 75% (v/v) water and 25% (v/v) DMSO. Different concentrations of formulated compounds or mixtures were sprayed onto the insect diet at 2.5µL, using a custom-built micro atomizer, at two replications.
For experimental mixtures in these tests identical volumes of both mixing partners at the desired concentrations respectively, were mixed together.
After application, microtiter plates were incubated at 28 ± 1°C, 80 ± 5 % relative humidity for 2 days. Larval mortality was then visually assessed.

[5] = system: Boll weevil (Anthonomus grandis); assay: Action on Boll weevil (Anthonomus grandis), 96-well microtiter plate insect diet test; conditions: 120 h, egg and larval mortality visually assessed after 5 days, read-out: mortality in comparison with untreated controls
Procedure: Example B3: Action on Boll weevil (Anthonomus grandis )
For evaluating control of boll weevil (Anthonomus grandis) the test unit consisted of 96-well-microtiter plates containing an insect diet and 5-10 A. grandis eggs.
The compounds were formulated using a solution containing 75% (v/v) water and 25% (v/v) DMSO. Different concentrations of formulated compounds were sprayed onto the insect diet at 5 µL, using a custom-built micro atomizer, at two replications.
After application, microtiter plates were incubated at about 25 + 1°C and about 75 + 5 % relative humidity for 5 days. Egg and larval mortality were then visually assessed.

[6] = system: Southern armyworm (Spodoptera eridania), second instar larvae; assay: Action on Southern armyworm (Spodoptera eridania), sprayed lima bean plants; conditions: 96 h, 4 days after treatment, read-out: mortality in comparison with untreated controls
Procedure: Example B7: Action on Southern armyworm (Spodoptera eridania), second instar larvae
The active compounds were formulated by a Tecan liquid handler in 100% cyclohexanone as a 10,000 ppm solution supplied in tubes. The 10,000 ppm solution was serially diluted in 100% cyclohexanone to make interim solutions. These served as stock solutions for which final dilutions were made by the Tecan in 50% acetone:50% water (v/v) into 10 or 20 mL glass vials. A nonionic surfactant (Kinetic®) was included in the solution at a volume of 0.01% (v/v). The vials were then inserted into an automated electrostatic sprayer equipped with an atomizing nozzle for application to plants/insects.
Lima bean plants (variety Sieva) were grown 2 plants to a pot and selected for treatment at the 1st true leaf stage. Test solutions were sprayed onto the foliage by an automated electrostatic plant sprayer equipped with an atomizing spray nozzle. The plants were dried in the sprayer fume hood and then removed from the sprayer. Each pot was placed into perforated plastic bags with a zip closure. About 10 to 11 armyworm larvae were placed into the bag and the bags zipped closed. Test plants were maintained in a growth room at about 25°C and about 20-40% relative humidity for 4 days, avoiding direct exposure to fluorescent light (24 hour photoperiod) to prevent trapping of heat inside the bags. Mortality and reduced feeding were assessed 4 days after treatment, compared to untreated control plants.

[7] = system: Diamond back moth (Plutella xylostella); assay: Action on Diamond back moth (Plutella xylostella), cabbage leaf dip test; conditions: foliar, third instar larvae on dipped cabbage leaves, 72 hours after treatment, read-out: mortality in comparison with untreated controls
Procedure: Example B6: Action on Diamond back moth (Plutella xylostella)
The active compound is dissolved at the desired concentration in a mixture of 1:1 (v/v) distilled water: acetone. Surfactant (Kinetic® HV) is added at a rate of 0.01% (v/v). The test solution is prepared at the day of use.
Leaves of cabbage were dipped in test solution and air-dried. Treated leaves were placed in petri dishes lined with moist filter paper and inoculated with ten third instar larvae. Mortality was recorded 72 hours after treatment. Feeding damages were also recorded using a scale of 0-100%.

Row | SMILES | mortality at 300 ppm [1] [%] | mortality at 800 ppm [2] [%] | mortality at 800 ppm [3] [%] | mortality at 800 ppm [4] [%] | mortality at 800 ppm [5] [%] | mortality at 300 ppm [6] [%] | mortality at 300 ppm [7] [%]
1 | CCOC(=O)OCS/C(=N\N=C\c1ccc(-c2nn(C)c(N3Cc4cc(OC(F)(F)F)ccc4C3=O)c2C)cc1)Nc1cc(C)ccc1C(C)C [C-4, [(Z)-N'-[(E)-[4-[1,4-dimethyl-5-[1-oxo-5-(trifluoromethoxy)isoindolin-2-yl]pyrazol-3-yl]phenyl]methyleneamino]-N-(2-isopropyl-5-methyl-phenyl)carbamimidoyl]sulfanylmethyl ethyl carbonate] | ≥ 75 | ≥ 75 | ≥ 75 | ≥ 50 | ≥ 75 | ≥ 75 | 
2 | Cc1ccc(C(C)C)c(N2C(=O)CS/C2=N\N=C\c2ccc(-c3nc(N4CCc5cc(OC(F)(F)F)ccc5C4=O)n(C)n3)cc2)c1 [C-9, (2Z)-3-(2-isopropyl-5-methyl-phenyl)-2-[(E)-[4-[1-methyl-5-[1-oxo-6-(trifluoromethoxy)-3,4-dihydroisoquinolin-2-yl]-1,2,4-triazol-3-yl]phenyl]methylenehydrazono] thiazolidin-4-one] | ≥ 75 | ≥ 75 | ≥ 75 | ≥ 50 | ≥ 75 | ≥ 75 | 
3 | Cc1ccc(C(C)C)c(N/C(=N/N=C/c2ccc(-c3nn(C)c(N4Cc5cc(OC(F)(F)F)ccc5C4=O)c3C)cc2)SCOC(=O)C(C)C)c1 [C-3, [(Z)-N'-[(E)-[4-[1,4-dimethyl-5-[1-oxo-5-(trifluoromethoxy)isoindolin-2-yl]pyrazol-3-yl]phenyl]methyleneamino]-N-(2-isopropyl-5-methyl-phenyl)carbamimidoyl]sulfanylmethyl 2-methylpropanoate] | ≥ 75 | ≥ 75 | ≥ 75 | ≥ 50 | ≥ 75 | ≥ 75 | 
4 | Cc1ccc(C(C)C)c(N2C(=O)CS/C2=N\C(=O)Nc2ccc(-c3nn(C)c(N4CCc5cc(OC(F)(F)F)ccc5C4=O)c3C)cc2)c1 [C-11, (3Z)-1-[4-[1,4-dimethyl-5-[1-oxo-6-(trifluoromethoxy)-3,4-dihydroisoquinolin-2-yl]pyrazol-3-yl]phenyl]-3-[3-(2-isopropyl-5-methyl-phenyl)-4-oxo-thiazolidin-2-ylidene]urea] | ≥ 75 | ≥ 75 |  | ≥ 50 | ≥ 75 | ≥ 75 | ≥ 75
5 | Cc1ccc(C(C)C)c(NC(=S)N/N=C/c2ccc(-c3nn(C)c(N4CCc5cc(OC(F)(F)F)ccc5C4=O)c3C)cc2)c1 [C-7, 1-[(E)-[4-[1,4-dimethyl-5-[1-oxo-6-(trifluoromethoxy)-3,4-dihydroisoquinolin-2-yl]pyrazol-3-yl]phenyl]methyleneamino]-3-(2-isopropyl-5-methyl-phenyl)thiourea] | ≥ 75 | ≥ 75 | ≥ 75 | ≥ 50 | ≥ 75 | ≥ 75 | 
6 | Cc1ccc(C(C)C)c(N2C(=O)CS/C2=N\N=C\c2ccc(-c3nn(C)c(N4CCc5cc(OC(F)(F)F)ccc5C4=O)c3C)cc2)c1 [C-8, (2Z)-2-[(E)-[4-[1,4-dimethyl-5-[1-oxo-6-(trifluoromethoxy)-3,4-dihydroisoquinolin-2-yl]pyrazol-3-yl]phenyl]methylenehydrazono]-3-(2-isopropyl-5-methyl-phenyl)thiazolidin-4-one] | ≥ 75 | ≥ 75 |  | ≥ 50 | ≥ 75 | ≥ 75 | ≥ 75
7 | Cc1ccc(C(C)C)c(N2C(=O)CS/C2=N\C(=O)Nc2ccc(-c3nn(C)c(N4CCc5cc(OC(F)(F)F)ccc5C4=O)c3C)cc2Cl)c1 [C-12, (3Z)-1-[2-chloro-4-[1,4-dimethyl-5-[1-oxo-6-(trifluoromethoxy)-3,4-dihydroisoquinolin-2-yl]pyrazol-3-yl]phenyl]-3-[3-(2-isopropyl-5-methyl-phenyl)-4-oxo-thiazolidin-2-ylidene] urea] | ≥ 75 | ≥ 75 |  | ≥ 50 | ≥ 75 | ≥ 75 | ≥ 75
8 | Cc1ccc(C(C)C)c(NC(=S)N/N=C/c2ccc(-c3nn(C)c(N4Cc5cc(OC(F)(F)F)ccc5C4=O)c3C)cc2)c1 [C-1, 1-[(E)-[4-[1,4-dimethyl-5-[1-oxo-5-(trifluoromethoxy)isoindolin-2-yl]pyrazol-3-yl]phenyl]methyleneamino]-3-(2-isopropyl-5-methyl-phenyl)thiourea] | ≥ 75 | ≥ 75 |  | ≥ 50 | ≥ 75 | ≥ 75 | ≥ 75
